Measurements as given in patent US11806393B2, “Flavivirus peptide sequences, epitopes, and methods and uses thereof” (priority 2017, dated 2023).

Experiments:
Type in all cases: cell-based, mouse
[1] = system: CD8+ T cells; test: IFNγ ELISPOT, ZIKV-infected Ifnar-/- HLA-B*0702 transgenic mice; details: HLA-B*0702 mice; for SFC/10^6 CD8+ T cells, MR766: 7 days after 1×10^2 FFU ZIKV MR766; for SFC/10^6 CD8+ T cells, FSS13025: 7 days after 1×10^2 FFU ZIKV FSS13025
Procedure: (§1) Two ZIKV strains, MR766 (Uganda, 1947) and FSS13025 (Cambodia, 2010), were obtained from the World Reference Center for Emerging Viruses and Arboviruses (WRCEVA). The mouse-adapted DENV2 strain S221 is a triple-plaque purified clone derived from DENV2 D2S1038. Both ZIKV and DENV2 were amplified in C6/36 mosquito cells, and viral titers were measured using baby hamster kidney (BHK)-21 cell-based focus forming assay (FFA). For epitope screening, 5-week old mice (female or male) were infected retro-orbitally (R.O.) with either 1×102 FFU of ZIKV FSS13025 or ZIKV MR766, or 2×10^4 FFU of DENV2 S221 in 200 μl 10% FBS/PBS. Seven days after infection, CD8^+ T cells were isolated from splenocytes and used for ELISPOT assay, while the splenocytes were directly used for ICS assay. Additionally, 5-week old mice were inoculated I.P. with 2×10^3 FFU of DENV2 S221 for 4 weeks.
(§2) CD8^+ T cells were isolated from splenocytes using magnetic bead positive selection (Miltenyi Biotec, Germany) 7 days after virus infection. 2×10^5 CD8^+ T cells were stimulated with 1×10^5 LPS-blasts loaded with 10 μg of individual peptide in 96-well flat-bottom plates (IMMOBILON™-P; Millipore, Bedford, Mass.) that were coated with anti-IFNγ mAb (clone AN18; Mabtech, Stockholm, Sweden) in triplicate. Concanavalin A (ConA) was used as positive control. After 20 hours of incubation, biotinylated anti-mouse IFNγ mAb (R4-6A2; Mabtech), followed by ABC peroxidase (Vector Laboratories, Burlingame, Calif., USA) and then 3-amino-9-ethylcarbazole (Sigma-Aldrich, St. Louis, Mo., USA) were added into the wells. […] A peptide inducing a magnitude of >500 SFCs/10^6 CD8^+ T cells was considered as an immunodominant peptide.
Two independent experiments performed in triplicate were averaged and the error bars represent the SEM. The data are expressed as the mean number of spot forming cells (SFC) per 10^6 CD8^+ T cells. The criteria for positivity were net SFC per 10^6 cells of >20, and a stimulation index of >2.0 when compared with the negative control. Dotted lines represent the cutoff value. * Indicates a positive response. […] ConA denotes Concanavalin A.

[2] = system: CD8+ T cells; test: IFNγ ELISPOT, DENV2 S221-infected Ifnar-/- HLA-B*0702 transgenic mice; details: HLA-B*0702 mice, 7 days after 2×10^4 FFU DENV2 S221
Procedure: as §1, §2
The following results are with respect to FIG. 14A and FIG. 14B, where Ifnar^−/− HLA-B*0702 transgenic mice were infected R.O. with 2×10^4 FFU of DENV2 strain S221 for 7 days. CD8^+ T cells isolated from splenocytes were stimulated with each of the 37 ZIKV epitopes identified via IFNγELISPOT to perform (FIG. 14A) IFNγELISPOT and (FIG. 14B) ICS assay. Data represent the average of two independent IFNγELISPOT experiments and two independent ICS experiments (n=7 mice) and are expressed as mean±SEM. Dotted line corresponds to the cutoff value. *, P<0.05.

[3] = system: CD3+CD8+ T cells; test: IFNγ ICS, ZIKV-infected Ifnar-/- HLA-B*0702 transgenic mice; details: for % IFNγ+ CD8+ T cells, MR766: 7 days after ZIKV MR766, ICS
Procedure: as §1
Spleens were harvested from virus-infected, mock-immunized, or peptide-immunized mice. 1×10^6 splenocytes were plated in each well of 96-well U-bottom plates and stimulated with individual peptide (10 μg crude peptide or 1 μg pure peptide per well) for 6 hours. Five hours before the end of incubation, Brefeldin A (GolgiPlug; BD Biosciences) and PE-conjugated anti CD107a mAb (clone 1D4B, eBioscience) were added to the cells. Splenocytes stimulated with PMA-ionomycin were used as the positive control, while cells without any stimulation were the negative control. […] Samples were run using an LSR™ II (BD Biosciences) and analyzed using FLOWJO™ software X 10.0.7 (Tree Star, Ashland, Oreg.).
Data represent the average of two independent experiments and are expressed as mean±SEM. *, P<0.05; **, P<0.01; Two-tailed Mann-Whitney test. P/I denotes PMA/ionomycin.

[4] = system: CD44+ CD4+ T cells; test: ICS, ZIKV SD001-infected Ifnar1-/- HLA-DRB1*0101 mice
Procedure: Ifnar1^−/− HLA-DRB1*0101 mice were infected retro-orbitally with 1×10^2 FFU of ZIKV strain SD001 for 7 days. Splenocytes were stimulated in vitro with the indicated ZIKV-derived HLA-DRB1*0101-binding peptides for 6 h, and the frequency of CD44^+ CD4^+ T cells producing IFNγ, TNF, or IFNγ plus TNF (A), IL-2 (B), and IL-17 (C) were detected using the ICS assay. Data represent the mean±s.e.m. of four independent experiments (n=3-5 mice/experiment; total 16 mice). *P<0.05, **P<0.01, ***P<0.001, ****P<0.0001 by two-tailed Mann-Whitney test. Negative and positive refer to cells incubated alone or with PMA/ionomycin, respectively. […]
(§3) For the 30-peptide epitope screen, 5-week-old female or male mice were infected retro-orbitally (r.o.) with either 1×10^2 focus-forming units (FFU) of ZIKV SD001 or 2×10^3 FFU of DENV2 S221 in 200 μl of 10% fetal bovine serum in phosphate-buffered saline (FBS/PBS). Seven days after infection, spleens were removed and single-cell splenocyte suspensions were prepared. A total of 1×10^6 splenocytes was plated in each well of a 96-well U-bottom plate and stimulated with individual peptides (20 μg crude peptide per well) for 6 h. One hour into the incubation, brefeldin A (GolgiPlug, BD Biosciences) was added to the cells. Positive and negative controls were splenocytes stimulated with phorbol-12-myristate-13-acetate (PMA, 0.1 μg/ml) and ionomycin (1 μg/ml) or incubated alone, respectively.
(§4) After incubation of splenocytes with peptides or PMA/ionomycin, cells were harvested, washed, and incubated with Fc Block (CD16/CD32 mAb 2.4G2, BD Biosciences), followed by staining with fixable Live/Dead blue viability stain (Life technologies) and the following antibodies: PerCP-Cy5.5-conjugated anti-CD3 mAb (clone 145-2C11, Tonbo), APC-eFluor780-conjugated anti-CD4 mAb (clone GK1.5, Invitrogen), Brilliant Violet (BV) 785-conjugated anti-CD44 mAb (clone IMT, Biolegend), PE-conjugated anti-CD11a (clone M17/4, Biolegend), BV605-conjugated anti-CD49d (clone 9C10(MFR4.B, Biolegend), PE-conjugated anti-CD25 mAb (clone PC61, Biolegend), PE-conjugated or biotin-conjugated anti-CD185 mAb (CXCR5, clone SPRC15; Invitrogen), BV 605-conjugated anti-[…] mAb (PD1, clone 29F.1A12; Biolegend), and/or BV 421-conjugated streptavidin (#405225, Biolegend). Cells were then fixed and permeabilized using Cytofix/Cytoperm solution (BD Biosciences), followed by staining with FITC-conjugated anti-IFNγ mAb (clone XMG1.2, Tonbo), Alexa Fluor 700- or APC-conjugated anti-TNF mAb (clone MP6-XT22, eBioscience), PE-, BV 421-, or BV 711-conjugated anti-IL-2 mAb (clone JES6-5H4, Biolegend), APC-conjugated anti-IL-4 mAb (clone 11B11, Biolegend), PE-conjugated anti-IL-5 mAb (clone TRFK5, eBioscience), BV510-conjugated anti-IL-17A mAb (clone 17B7, eBioscience), and/or Alexa Fluor 700-conjugated anti-FoxP3 mAb (clone FJK-16S, eBioscience). Data were collected using an LSR Fortessa flow cytometer (BD Biosciences) and analyzed using FlowJo software X 10.0.7 (Tree Star).

[5] = system: CD44+ CD4+ T cells; test: ICS, DENV2 S221-infected Ifnar1-/- HLA-DRB1*0101 mice
Procedure: Ifnar1^−/− HLA-DRB1*0101 mice were infected intraperitoneally with 2×10^3 FFU of DENV2 strain […] for 7 days. Splenocytes were stimulated in vitro with the indicated ZIKV-derived HLA-DRB1*0101-binding peptides for 6 h. The frequency of CD44^+ CD4^+ T cells producing IFNγ, TNF, or IFNγ plus TNF (A) or IL-2 (B) were detected using the ICS assay. Data represent the mean±s.e.m. of three independent experiments (n=3-4 mice/experiment; total 10 mice). *P<0.05, **P<0.01, ***P<0.001, ****P<0.0001 by two-tailed Mann-Whitney test. Negative and positive refer to cells incubated alone or with PMA/ionomycin, respectively.
as §3, §4

[6] = system: CD44+ CD4+ T cells; test: ICS, naive or DENV2-immune Ifnar1-/- HLA-DRB1*0101 mice challenged with ZIKV
Description: Ifnar1−/−HLA-DRB1*0101 mice were primed intraperitoneally with 2×103 FFU of DENV2 S221 for 4 weeks. Naïve mice and DENV2-immune mice were challenged retro-orbitally with 1×10^4 FFU of ZIKV strain SD001 for 3 or 7 days. Splenocytes were stimulated in vitro with the indicated ZIKV-specific and DENV2/ZIKV-cross-reactive epitopes. The frequency of CD44+ CD4+ T cells producing IFNγ, IFNγ plus TNF, or IL-2 were detected using the ICS assay. (E) The combined data for positive peptide responses in (FIGS. 27A-27D). Numbers in parentheses indicate the number of positive peptides. Data represent the mean±s.e.m. of three or four independent experiments, with a total of 9 mice/group for A and C, 14/group for B, and 15/group for D. *P<0.05, **P<0.01, ***P<0.001, ****P<0.0001 by two-tailed Mann-Whitney test. Negative and positive refer to cells incubated alone or with PMA/ionomycin, respectively.
Five-week-old female or male mice were inoculated intraperitoneally (i.p.) with 2×10^3 FFU of DENV2 S221. […] Positive and negative controls were included in all experiments.
as §4

[7] = 7 days after ZIKV SD001, 6 h stimulation
[8] = 7 days after DENV2 S221, 6 h stimulation

## APTQGSASSL [FSS/MR-NS561-70]
[1]
  SFC/10^6 CD8+ T cells, MR766: 98 SFC/10^6 CD8+ T cells
[2]
  SFC/10^6 CD8+ T cells, S221: 47 SFC/10^6 CD8+ T cells

## GPMPVTHASA [FSS/MR-NS3427-436]
[1]
  SFC/10^6 CD8+ T cells, FSS13025: 140 SFC/10^6 CD8+ T cells
  SFC/10^6 CD8+ T cells, MR766: 204 SFC/10^6 CD8+ T cells
[2]
  SFC/10^6 CD8+ T cells, S221: 136 SFC/10^6 CD8+ T cells

## KPTVDIEL [FSS/MR-E38-45]
[1]
  SFC/10^6 CD8+ T cells, MR766: 103 SFC/10^6 CD8+ T cells
[2]
  SFC/10^6 CD8+ T cells, S221: 51 SFC/10^6 CD8+ T cells

## LPEIVREAI [FSS/MR-NS3188-196]
[1]
  SFC/10^6 CD8+ T cells, MR766: 179 SFC/10^6 CD8+ T cells
[2]
  SFC/10^6 CD8+ T cells, S221: 63 SFC/10^6 CD8+ T cells
[3]; HLA-B*0702 mice
  % IFNγ+ CD8+ T cells, MR766: (0.23%)

## RAIWYMWLGARFLEP [NS5222-236]
[4]; [7]
  % CD4+ CD44+ T cells (ZIKV) IL-2+: 0.21%
  % CD4+ CD44+ T cells (ZIKV) INFγ+: 0.607%
  % CD4+ CD44+ T cells (ZIKV) INFγ+ TNFα+: 0.333%
  % CD4+ CD44+ T cells (ZIKV) TNFα+: 0.571%
[4]; ZIKV SD001, day 7
  cytokines produced by ZIKV-primed CD4+ T cells on peptide stimulation: stimulated IFNγ, TNF, and IL-2 production
[4]; ZIKV-primed CD4+ T cells
  identification as Th1 epitope (IFNγ, TNF, IL-2 ICS): Th1 epitopes
[5]; [8]
  % CD4+ CD44+ T cells (DENV) IL-2+: 0.643%
  % CD4+ CD44+ T cells (DENV) INFγ+: 0.82%
  % CD4+ CD44+ T cells (DENV) INFγ+ TNFα+: 1.451%
  % CD4+ CD44+ T cells (DENV) TNFα+: 0.8%
[5]; DENV2 S221, day 7
  cross-reactive response by DENV2-primed CD4+ T cells: elicited cross-reactive responses
  cytokines produced by DENV2-primed CD4+ T cells on peptide stimulation: induced cells producing IFNγ, TNF, and IL-2
[6]; DENV2-immune mice, day 7 after ZIKV challenge
  CD4+ T cell response to peptide: increased responses
[6]; DENV2-primed mice, day 3 after ZIKV challenge
  CD4+ T cell response (IFNγ, IL-2, IFNγ plus TNF): strong response
[6]; naive mice, day 7 after ZIKV challenge
  expansion of peptide-reactive CD4+ T cells: significant expansion

## RVCSDHAAL [FSS/MR-NS3581-589]
[1]
  SFC/10^6 CD8+ T cells, MR766: 411 SFC/10^6 CD8+ T cells
[2]
  SFC/10^6 CD8+ T cells, S221: 44 SFC/10^6 CD8+ T cells
[3]; HLA-B*0702 mice
  % IFNγ+ CD8+ T cells, MR766: (0.31%)

## SPNKYVVNSSTA [FSS/MR-NS4B210-220]
[1]
  SFC/10^6 CD8+ T cells, MR766: 195 SFC/10^6 CD8+ T cells
[2]
  SFC/10^6 CD8+ T cells, S221: 49 SFC/10^6 CD8+ T cells

## TPRESMLLAL [FSS/MR-NS2A89-99]
[1]
  SFC/10^6 CD8+ T cells, FSS13025: 807 SFC/10^6 CD8+ T cells
  SFC/10^6 CD8+ T cells, MR766: 823 SFC/10^6 CD8+ T cells
[1]; immunodominant: >500 SFCs/10^6 CD8+ T cells, shared by both ZIKV strains
  immunodominance in IFNγ ELISPOT: immunodominant
[2]
  SFC/10^6 CD8+ T cells, S221: 55 SFC/10^6 CD8+ T cells
[3]; HLA-B*0702 mice, 7 days after ZIKV FSS13025, ICS
  % IFNγ+ CD8+ T cells, FSS13025: (0.56%)
[3]; HLA-B*0702 mice
  % IFNγ+ CD8+ T cells, MR766: (0.95%)
[3]; mice infected with either ZIKV FSS13025 or ZIKV MR766
  simultaneous IFNγ and TNFα secretion by peptide-stimulated CD8+ T cells: simultaneously secreted both IFNγ and TNFα
